Experimental data taken from ChEMBL document CHEMBL5728514, “[1,2,4]Triazolo[4,3-a]quinoxaline derivative, method for preparing same, and pharmaceutical composition for preventing or treating BET protein-related diseases, containing same as active ingredient” (2021).

The molecules below were run against Bromodomain-containing protein 4 (Homo sapiens, UniProt O60885) (assay: A mixture comprising 100 nM GST-BRD4 (BD1+BD2) and 100 nM biotinylated acetyl-histone H4 (Lys5,8,12,16) peptide was prepared in assay buffer (50 mM HEPES pH 7.4; 25 mM NaCl; 0.05% Tween 20; 0.1% bovine serum albumin (BSA); 10 mM dithiothreitol (DTT)). After adding 6 μl of the mixture to the diluent, 6 μl of the pre-mixed AlphaLISA Glutathione Acceptor Beads and AlphaScreen Streptavidin Donor Beads (PerkinElmer, 10 μg/ml in assay buffer, respectively) was added thereto. The samples were incubated in the dark at room temperature for 30 minutes (shaking at 300 rpm). Then, the signals were measured with PerkinElmer Envision HTS Multilabel Reader using an alpha screen protocol of PerkinElmer. Each plate contained the negative control in which biotinylated acetyl-histone H4 peptide and GST-BRD4 (BD1+BD2) were replaced by assay buffer. In the case of using the software GraphPad Prism for calculation, the negative control point was input as a low standard value. The positive control (probe molecule l-BET762 containing protein/peptide mixture) proceeded to pipetting.).
`Cc1nnc2c(NCCCCNC(=O)c3ccccc3)nc3ccccc3n12` showed an IC50 of 0.058 µM.
Molecule `Cc1nnc2c(NCCCCNC(=O)c3ccccc3)nc3ccc(NC(=O)C(C)C)cc3n12` has an IC50 of 0.056 µM.
With `Cc1nnc2c(NCCCCNC(=O)C(C)(C)C)nc3ccc(F)cc3n12` the IC50 was 0.061 µM.
For `COCCOc1ccc2c(c1)nc(NCCCCNC(C)=O)c1nnc(C)n12`, the IC50 was 0.091 µM.
`Cc1nnc2c(NCCCCNC(=O)OC(C)C)nc3c(C(F)(F)F)cc(F)cc3n12` gave an IC50 of 0.091 µM.
`Cc1nnc2c(NCCCCNC(=O)C(C)C)nc3ccc(F)cc3n12` gave an IC50 of 0.077 µM.
With `Cc1ccc2nc(NCCCCNC(=O)C(C)(C)C)c3nnc(C)n3c2c1` the IC50 was 0.056 µM.
